Results: ChEMBL document CHEMBL1201862, “PubChem BioAssay data set” (2004)
Each block holds one molecule with its values, some of them ahead of it. Activity calls are given as the source filed them.

Key:
[1] = target: Induced myeloid leukemia cell differentiation protein Mcl-1 (Homo sapiens, UniProt Q07820); assay type: functional
Vero = Vero cell cytotoxicity, cytotoxicity control for flavivirus capping enzyme inhibitors (AID 588742); assay type: functional; settings: Chlorocebus sabaeus
Hexokinase HKDC1 = target: T1, Hexokinase HKDC1 (Homo sapiens, UniProt Q2TB90); assay: SAR analysis of small molecule inhibitors of hexokinase domain containing I (HKDC1). [Related pubchem assays (depositor defined):AID493160, AID493190]; assay type: functional
T1 sequence (Q2TB90 whole entry): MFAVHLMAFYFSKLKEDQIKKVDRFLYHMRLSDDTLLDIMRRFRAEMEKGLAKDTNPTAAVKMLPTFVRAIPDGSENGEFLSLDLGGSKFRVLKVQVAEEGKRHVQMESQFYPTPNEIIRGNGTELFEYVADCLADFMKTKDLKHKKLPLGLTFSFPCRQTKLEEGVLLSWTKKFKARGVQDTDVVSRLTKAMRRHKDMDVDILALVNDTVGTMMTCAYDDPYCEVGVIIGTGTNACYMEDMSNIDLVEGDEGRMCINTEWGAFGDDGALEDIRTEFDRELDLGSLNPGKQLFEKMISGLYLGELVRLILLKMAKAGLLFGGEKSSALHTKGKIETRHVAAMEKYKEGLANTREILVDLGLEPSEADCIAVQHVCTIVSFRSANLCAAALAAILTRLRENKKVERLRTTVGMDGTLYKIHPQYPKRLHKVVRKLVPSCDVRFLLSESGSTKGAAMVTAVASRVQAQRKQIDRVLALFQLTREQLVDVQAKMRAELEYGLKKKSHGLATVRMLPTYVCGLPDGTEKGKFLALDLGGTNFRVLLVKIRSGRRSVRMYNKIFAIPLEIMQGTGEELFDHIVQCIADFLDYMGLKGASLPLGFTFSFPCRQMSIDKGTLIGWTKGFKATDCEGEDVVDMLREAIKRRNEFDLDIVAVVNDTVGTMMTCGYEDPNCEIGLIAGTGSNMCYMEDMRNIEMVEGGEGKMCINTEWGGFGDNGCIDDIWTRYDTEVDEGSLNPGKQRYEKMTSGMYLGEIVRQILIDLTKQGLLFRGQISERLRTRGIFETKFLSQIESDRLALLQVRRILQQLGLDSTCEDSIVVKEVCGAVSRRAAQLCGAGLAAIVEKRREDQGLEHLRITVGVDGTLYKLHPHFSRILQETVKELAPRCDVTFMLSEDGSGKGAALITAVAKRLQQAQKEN

Hexokinase-1 = target: T2, Hexokinase-1 (Homo sapiens, UniProt P19367); assay: SAR analysis of small molecule inhibitors of hexokinase domain containing I (HKDC1) in the hexokinase 1 selectivity assay. [Related pubchem assays (depositor defined):AID493160, AID493190]; assay type: functional
T2 sequence (P19367 whole entry): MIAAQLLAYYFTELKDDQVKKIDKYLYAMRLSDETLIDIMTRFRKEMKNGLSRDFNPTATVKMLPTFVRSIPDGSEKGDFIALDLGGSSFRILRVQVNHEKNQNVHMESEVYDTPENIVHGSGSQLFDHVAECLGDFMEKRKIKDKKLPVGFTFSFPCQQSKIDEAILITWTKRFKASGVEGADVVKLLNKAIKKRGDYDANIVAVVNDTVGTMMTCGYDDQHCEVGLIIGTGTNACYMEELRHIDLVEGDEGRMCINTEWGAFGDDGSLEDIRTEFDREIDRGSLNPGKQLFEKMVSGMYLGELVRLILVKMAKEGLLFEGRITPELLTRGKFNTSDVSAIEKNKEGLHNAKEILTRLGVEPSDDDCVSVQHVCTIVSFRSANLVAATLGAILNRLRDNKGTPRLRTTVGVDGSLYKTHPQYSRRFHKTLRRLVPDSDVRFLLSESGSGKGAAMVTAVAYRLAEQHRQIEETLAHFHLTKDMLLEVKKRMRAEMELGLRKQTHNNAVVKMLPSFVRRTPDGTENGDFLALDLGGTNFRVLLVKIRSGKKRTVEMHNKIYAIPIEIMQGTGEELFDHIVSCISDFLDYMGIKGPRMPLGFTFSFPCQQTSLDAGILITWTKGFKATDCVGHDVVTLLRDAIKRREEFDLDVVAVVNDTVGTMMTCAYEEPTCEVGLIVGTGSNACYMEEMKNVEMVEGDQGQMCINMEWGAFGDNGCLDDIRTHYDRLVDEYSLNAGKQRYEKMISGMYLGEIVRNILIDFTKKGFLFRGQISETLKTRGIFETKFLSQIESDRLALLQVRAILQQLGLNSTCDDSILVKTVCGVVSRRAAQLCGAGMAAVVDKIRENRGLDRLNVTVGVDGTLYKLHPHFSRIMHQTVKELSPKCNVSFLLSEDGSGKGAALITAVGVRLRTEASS

[2] = target: T3, Polyadenylate-binding protein 1 (Homo sapiens, UniProt P11940); assay: PABP1 MLLE–PAM2 interaction inhibitors, dose response, miRNA deadenylation inhibitor project, biochemical, fluorescence polarization, Cy5-PAM2 peptide, secondary (AID 602260); assay type: functional; settings: read-out: IC50_Mean
[3] = target: ATP-dependent molecular chaperone HSP82 (Candida albicans (strain WO-1) (Yeast), UniProt C4YTQ8); assay: loss of DOC-induced GRE-beta-galactosidase reporter signal, dose response, Hsp90 inhibitor project, S. cerevisiae, luminescence (AID 2400); assay type: functional, cell-based;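 note: beta-galactosidase luminescence from glucocorticoid response element reporter as proxy for Hsp90 function; inhibitor potency where signal loss means Hsp90 inhibition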
[4] = target: T3, Polyadenylate-binding protein 1; assay: PABP1 MLLE–PAM2 binding inhibitor potency, dose response, biochemical, fluorescence polarization, FITC-PAM2 peptide (AID 602259); assay type: functional; settings: read-out: IC50_Mean
[5] = C. albicans growth with fluconazole, confirmation, fluorescence, retest (AID 2467); assay type: functional, cell-based
[6] = target: Serine/threonine-protein phosphatase (Candida dubliniensis (strain CD36 / CBS 7987 / NCPF 3949 / NRRLY-17841) (Yeast), UniProt B9W6M3); assay: calcineurin pathway inhibitors in yeast reporter, dose response, S. cerevisiae, CDRE-lacZ, luminescence, secondary (AID 2388); assay type: functional, cell-based;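 note: yeast reporter cells carrying a calcineurin-responsive lacZ construct stimulated with calcium chloride; luminescent beta-galactosidase reporter signal in whole cells rather than isolated phosphatase activity; potency for inhibition where a drop in reporter signal means calcineurin blockade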
Beta-galactosidase = Beta-galactosidase (Escherichia coli, UniProt Q8VNN2); assay: PubChem AID 485352; assay type: functional
[7] = NIH-3T3 fibroblast cytotoxicity, dose response, cytotoxicity control, cell-based, fluorescence, Alamar Blue, secondary assay (AID 2327); assay type: functional;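 note: NIH-3T3 mouse fibroblasts cultured with fluconazole at 8 µg/mL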
[8] = target: T4, Type-1 angiotensin II receptor (Homo sapiens, UniProt P30556); assay: AT1 receptor antagonists, dose response, selectivity assay for APJ receptor antagonist project, cell-based, uHTS hits (AID 463214); assay type: functional;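 note: antagonist potency against angiotensin II stimulated AT1 response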
T4 sequence (P30556 whole entry): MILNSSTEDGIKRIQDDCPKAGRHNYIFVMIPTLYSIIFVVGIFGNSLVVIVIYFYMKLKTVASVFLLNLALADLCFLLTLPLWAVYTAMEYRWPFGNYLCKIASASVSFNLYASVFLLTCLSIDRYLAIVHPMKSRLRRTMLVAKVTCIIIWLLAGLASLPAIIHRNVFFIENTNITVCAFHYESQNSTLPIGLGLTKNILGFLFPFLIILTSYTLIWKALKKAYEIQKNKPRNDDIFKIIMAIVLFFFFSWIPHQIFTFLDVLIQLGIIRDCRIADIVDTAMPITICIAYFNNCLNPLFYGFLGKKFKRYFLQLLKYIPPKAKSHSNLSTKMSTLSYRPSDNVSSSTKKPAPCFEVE

Escherichia coli = assay: microbe, parasite or virus in culture

T3 sequence (P11940 whole entry): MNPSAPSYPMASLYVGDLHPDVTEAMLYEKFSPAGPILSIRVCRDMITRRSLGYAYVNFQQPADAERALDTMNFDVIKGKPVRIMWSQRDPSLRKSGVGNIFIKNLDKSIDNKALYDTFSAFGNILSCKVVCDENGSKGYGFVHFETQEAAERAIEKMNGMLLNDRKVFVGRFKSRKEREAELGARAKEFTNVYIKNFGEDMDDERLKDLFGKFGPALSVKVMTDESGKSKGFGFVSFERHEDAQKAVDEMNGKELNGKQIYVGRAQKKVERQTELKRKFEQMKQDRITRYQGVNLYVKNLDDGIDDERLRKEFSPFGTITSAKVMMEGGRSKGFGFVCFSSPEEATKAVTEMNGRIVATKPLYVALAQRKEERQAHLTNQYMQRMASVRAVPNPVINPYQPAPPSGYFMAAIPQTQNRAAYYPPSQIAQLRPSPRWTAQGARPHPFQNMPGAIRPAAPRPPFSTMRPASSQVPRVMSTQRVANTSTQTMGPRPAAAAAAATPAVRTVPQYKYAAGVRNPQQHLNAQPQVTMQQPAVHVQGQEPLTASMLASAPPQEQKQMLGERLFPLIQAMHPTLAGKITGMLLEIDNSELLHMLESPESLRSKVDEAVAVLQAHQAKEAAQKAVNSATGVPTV
Chain of Serine/threonine-protein phosphatase (B9W6M3 whole entry): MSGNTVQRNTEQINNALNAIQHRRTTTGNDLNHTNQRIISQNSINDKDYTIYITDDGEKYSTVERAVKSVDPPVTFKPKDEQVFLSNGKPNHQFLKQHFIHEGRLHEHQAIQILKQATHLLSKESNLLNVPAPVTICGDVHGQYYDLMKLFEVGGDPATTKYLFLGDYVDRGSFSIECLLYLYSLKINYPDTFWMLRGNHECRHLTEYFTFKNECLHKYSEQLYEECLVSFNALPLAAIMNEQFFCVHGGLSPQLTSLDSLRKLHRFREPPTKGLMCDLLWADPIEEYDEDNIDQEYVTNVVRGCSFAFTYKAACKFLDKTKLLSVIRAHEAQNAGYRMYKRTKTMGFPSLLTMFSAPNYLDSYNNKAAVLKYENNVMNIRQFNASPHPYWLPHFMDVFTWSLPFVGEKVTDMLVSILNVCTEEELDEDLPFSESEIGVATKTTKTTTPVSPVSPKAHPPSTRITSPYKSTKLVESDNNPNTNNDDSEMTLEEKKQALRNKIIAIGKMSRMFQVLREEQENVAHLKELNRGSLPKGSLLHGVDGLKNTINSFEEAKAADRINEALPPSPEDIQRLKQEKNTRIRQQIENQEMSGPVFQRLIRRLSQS
Chain of Beta-galactosidase (Q8VNN2 whole entry): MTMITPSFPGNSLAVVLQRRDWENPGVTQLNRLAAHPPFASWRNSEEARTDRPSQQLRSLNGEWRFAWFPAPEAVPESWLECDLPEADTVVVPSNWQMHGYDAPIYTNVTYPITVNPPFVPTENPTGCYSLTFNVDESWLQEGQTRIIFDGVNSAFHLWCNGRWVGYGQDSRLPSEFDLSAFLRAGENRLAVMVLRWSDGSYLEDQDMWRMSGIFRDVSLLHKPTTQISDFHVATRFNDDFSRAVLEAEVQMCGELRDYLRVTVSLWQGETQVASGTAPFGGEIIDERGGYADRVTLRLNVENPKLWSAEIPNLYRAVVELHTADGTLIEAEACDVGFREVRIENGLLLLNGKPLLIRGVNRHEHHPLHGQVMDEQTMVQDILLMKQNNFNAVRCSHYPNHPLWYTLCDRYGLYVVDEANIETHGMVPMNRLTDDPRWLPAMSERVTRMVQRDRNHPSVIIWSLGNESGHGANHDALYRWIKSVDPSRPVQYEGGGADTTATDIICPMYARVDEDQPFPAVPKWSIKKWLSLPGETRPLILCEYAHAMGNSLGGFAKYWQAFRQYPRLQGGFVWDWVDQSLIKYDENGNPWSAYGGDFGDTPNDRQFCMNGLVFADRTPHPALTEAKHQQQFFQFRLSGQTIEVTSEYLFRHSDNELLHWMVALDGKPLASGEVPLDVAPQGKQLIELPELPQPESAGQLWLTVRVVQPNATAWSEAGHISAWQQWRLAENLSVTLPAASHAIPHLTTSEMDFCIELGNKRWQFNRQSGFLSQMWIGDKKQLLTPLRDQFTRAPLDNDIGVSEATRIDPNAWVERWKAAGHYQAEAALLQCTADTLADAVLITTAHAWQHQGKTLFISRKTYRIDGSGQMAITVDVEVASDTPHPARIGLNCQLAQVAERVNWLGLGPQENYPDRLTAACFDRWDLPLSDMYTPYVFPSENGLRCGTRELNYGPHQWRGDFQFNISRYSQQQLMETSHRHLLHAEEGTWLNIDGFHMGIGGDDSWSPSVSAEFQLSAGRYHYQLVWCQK
Chain of Induced myeloid leukemia cell differentiation protein Mcl-1 (Q07820 whole entry): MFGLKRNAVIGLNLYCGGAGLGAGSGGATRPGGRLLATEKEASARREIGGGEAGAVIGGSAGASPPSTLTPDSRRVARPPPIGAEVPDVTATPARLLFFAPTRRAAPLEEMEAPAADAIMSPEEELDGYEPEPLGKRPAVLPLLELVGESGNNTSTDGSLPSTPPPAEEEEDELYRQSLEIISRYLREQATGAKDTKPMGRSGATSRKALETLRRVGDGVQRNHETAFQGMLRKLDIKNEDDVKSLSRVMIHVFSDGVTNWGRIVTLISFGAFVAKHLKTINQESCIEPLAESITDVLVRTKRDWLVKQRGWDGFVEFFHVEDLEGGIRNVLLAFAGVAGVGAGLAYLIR
Chain of ATP-dependent molecular chaperone HSP82 (C4YTQ8 whole entry): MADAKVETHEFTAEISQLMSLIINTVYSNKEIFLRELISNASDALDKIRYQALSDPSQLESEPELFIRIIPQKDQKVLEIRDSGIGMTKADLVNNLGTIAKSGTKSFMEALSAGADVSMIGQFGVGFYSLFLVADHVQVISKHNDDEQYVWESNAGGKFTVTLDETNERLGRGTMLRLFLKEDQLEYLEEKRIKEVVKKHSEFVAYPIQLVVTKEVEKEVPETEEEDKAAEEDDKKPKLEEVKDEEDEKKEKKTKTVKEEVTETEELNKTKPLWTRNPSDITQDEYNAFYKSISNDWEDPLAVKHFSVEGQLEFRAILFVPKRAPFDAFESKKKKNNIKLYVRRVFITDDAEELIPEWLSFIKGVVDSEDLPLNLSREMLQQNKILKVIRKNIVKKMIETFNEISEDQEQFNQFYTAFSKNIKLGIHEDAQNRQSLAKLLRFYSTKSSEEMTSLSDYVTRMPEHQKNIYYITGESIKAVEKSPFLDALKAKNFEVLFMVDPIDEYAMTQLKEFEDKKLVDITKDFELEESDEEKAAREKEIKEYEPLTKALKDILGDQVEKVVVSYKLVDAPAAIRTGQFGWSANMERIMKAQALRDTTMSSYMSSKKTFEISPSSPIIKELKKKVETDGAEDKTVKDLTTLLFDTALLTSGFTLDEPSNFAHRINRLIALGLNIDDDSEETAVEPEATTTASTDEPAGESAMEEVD

IC50 [1]: 2.17 µM (active)
Structure (SMILES): CNc1ccc(Br)cc(C(=O)/C=C/c2ccc(OC)cc2OC)c1=O
CC50 (Vero): > 40 µM (active)

IC50 (Hexokinase HKDC1): > 80 µM (inactive) | IC50 (Hexokinase-1): > 80 µM (inactive)
Structure (SMILES): O=C(CSc1nc2ccccc2[nH]1)Nc1cccc(S(=O)(=O)N2CCOCC2)c1

Structure (SMILES): Cc1cc(O)ccc1NC(=S)NC(=O)c1cncc(Br)c1
IC50 [2]: > 66 µM (inactive) | EC50 [3]: > 160 µM (inactive) | IC50 [4]: > 66 µM (inactive) | EC50 [5]: 1.05 µM (active) | EC50 [6]: > 180 µM (inactive) | EC50 (Beta-galactosidase): > 40 µM (inactive) | EC50 [7]: > 160 µM (inconclusive) | IC50 [8]: 10.5 µM (active)

Structure (SMILES): CC(C)(C)CC(=O)Nc1cccc(-c2cn3cccnc3n2)c1
AC50 (Escherichia coli): 45.2 µM (active)
